Data set [1] has as its system bacteria listed in Table 1. The data set can be described thus: Antibacterial test on the bacteria listed in Table 1 (overall statements). The class given is cell-based. The conditions noted are these: for antimicrobial activity compared with the (6E)-2,3-dihydrofarnesol described before: same test, bacteria listed in Table 1. The protocol: (§1) The minimum inhibitory concentrations of (6E)-2,3-dihydrofarnesol synthesized in Synthesis Example 1 on bacteria listed in Table 1 were determined in the following manner by the step dilution method in an agar medium.
(§2) 10 g of brain heart infusion medium (manufactured by Nissui Seiyaku K.K.), 10 g of dry bouillon (manufactured by Nissui Seiyaku K.K.), 4 g of yeast extract powder (manufactured by Difco Laboratories) and 14 g of agar were added to 1,000 ml of distilled water and dissolved therein by heating. Then the obtained solution was pipetted in 10 ml portions into test tubes and sterilized under elevated pressure. Then it was heated again and sustained in the state of a solution. Subsequently, each test solution and ethanol or DMSO (dimethyl sulfoxide) free from any antimicrobial compound of the present invention (employed as a control) were added thereto in amounts of 5 to 200 μl. After mixing, the solutions were poured into plastic Petri dishes (inner diameter: 90 mm) and solidified.
(§3) The medium thus solidified in each Petri dish was divided into 9 parts. Then 5 μl portions of suspensions of the test microorganisms except acne bacteria in distilled water (cell or spore count: 10^8 -10^9 /ml) were inoculated thereinto and incubated at 30° C. for 48 hours.
(§4) In the case of the acne bacteria, a GAM medium (manufactured by Nissui Seiyaku K.K.) was pipetted in 6 ml portions into screwed test tubes (10×105 mm) and sterilized. After adding sample solutions, a culture medium of the acne bacteria was inoculated in 5 μl portions and incubated at 37° C. for 48 hours followed by the judgement of the growth.
Further, the (6E)-2,3-dihydrofarnesol synthesized in Synthesis Example 2 and the (3S)-(6E)-2,3-dihydrofarnesol synthesized in Synthesis Example 3 were subjected to the same test by using the bacteria listed in Table 1.

Data set [2] deals with human skin. The data set can be described thus: Patch test on human skin (inside of upper arms). The conditions noted are these: for skin irritation: 10% in lanolin, 30 subjects, first 24 hours and subsequent 24 hours.
Method: (§5) The obtained solution was then applied onto patches (Finnchamber, manufactured by Taisho Pharmaceutical Co., Ltd.). These patches were adhered to the inside of upper arms of 30 subjects. After 24 hours, the patches were peeled from the skin and the skin irritation was examined. Further, the skin irritation was examined after the subsequent 24 hours.
The next data set has as its system Pseudomonas aeruginosa. The data set can be described thus: Antibacterial test, step dilution method in agar medium. Format: cell-based. The following applies: 30° C., 48 hours. The protocol:
as §1, §2, §3

The next data set relates to Bacillus subtilis. Described as above. Format: cell-based. The conditions noted are these: 30° C., 48 hours. Here is the method:
as §1, §2, §3

Data set [3] has as its system human skin. The following applies: in vivo.
Method: as §5
A further data set relates to acne bacteria. The data set can be described thus: Antibacterial test, acne bacteria in GAM medium. Format: cell-based. The following applies: 37° C., 48 hours. Here is the method: as §1, §4
The next data set concerns Guinea pig skin. The following applies: in vivo. The protocol:
A sensitization test with the use of Guinea pigs was carried out in accordance with the Magnusson method by using (a) the (6E)-2,3-dihydrofarnesol of a purity of 99% or above, (b) the (6E)-2,3-dihydrofarnesol of a purity of 52% and (d) the (3S)-(6E)-2,3-dihydrofarnesol.
Then the same test was performed by using farnesol [(2E,6E)-form: (2E,6Z)-form: (2Z,6E)-form: (2Z,6Z)-form=1:1:1:1] which was an analog of the (6E)-2,3-dihydrofarnesol of the present invention.

The test system of the next data set is skin. The following applies: background, restricts use on a mass scale; cited from earlier work.
Data set [4] concerns bacteria listed in Table 1. The following applies: JP-A-60-64913; cited from earlier work.
The next data set relates to indigenous skin bacteria. The data set can be described thus: Antibacterial test, step dilution method in agar medium. The class given is cell-based. The following applies: 30° C., 48 hours, read-out: minimum inhibitory concentration (MIC). Here is the method:
as §1, §2, §3

In the next data set the test system is Staphylococcus aureus. Described as above. Format: cell-based. The conditions noted are these: 30° C., 48 hours, read-out: minimum inhibitory concentration (MIC). The protocol:
as §1, §2, §3

The next data set deals with coryne bacteria. The data set is described as above. Format: cell-based. The conditions noted are these: 30° C., 48 hours, read-out: minimum inhibitory concentration (MIC). Here is the method:
as §1, §2, §3

The values that follow come from patent US5753610A, “Perfume containing (6E) -2,3-dihydrofarnesol” (Takasago International Corporation, priority 1995, dated 1998).

Molecules are shown by their SMILES. Converted amounts (≈) assume the structure as drawn. Read-outs that look alike come from different tables or passages of the source. A value given as a limit tells only on which side of the number the result lay.

For the compound `CC(C)=CCC/C(C)=C/CCC(C)CCO` (stereo not drawn) [(6E)-2,3-dihydrofarnesol], in [1], the “antimicrobial activity compared with farnesol” value is recorded as “superior to farnesol in the antimicrobial activity on some bacteria”. The “sensitization, human skin” value in the data set with human skin [2] (10% in a lanolin solution) is on record as “no sensitization”.
Consider `CC(C)=CCC/C(C)=C/CCC(C)CCO` (stereo not drawn) [(a), (6E)-2,3-dihydrofarnesol], for which the “antimicrobial activity compared with the (6E)-2,3-dihydrofarnesol described before” value in data set [1] is reported as “almost the same as those described above, though some differences were observed”. The skin irritation entry with human skin [2] is given as “no skin irritation”.
Regarding `CC(C)=CCC/C(C)=C/CCC(C)CCO` (stereo not drawn) [(b), (6E)-2,3-dihydrofarnesol], the “concentration at which an antimicrobial activity was observed” value in data set [1] (bacteria of Table 1) is recorded as no more than 30 ppm. For the same compound, the “minimum inhibitory concentration (MIC)” value in the data set with Pseudomonas aeruginosa and in the data set on Bacillus subtilis was 20 ppm in each case. For the same compound, the skin irritation result in the data set with human skin [3] was “no skin irritation”. For the same compound, the “concentration at which an antimicrobial activity was exerted” value in the data set with acne bacteria was no more than 10 ppm.
`CC(C)=CCC/C(C)=C/CC[C@H](C)CCO` [(d), (3S)-(6E)-2,3-dihydrofarnesol]: the “antimicrobial activity compared with the (6E)-2,3-dihydrofarnesol described before” value was “antimicrobial activity similar to the above-mentioned (6E)-2,3-dihydrofarnesol” in data set [1] and “almost the same as those described above, though some differences were observed” in data set [1] (listed as (3S)-(6E)-2,3-dihydrofarnesol synthesized in Synthesis Example 3). Also, the skin irritation result in the data set with human skin [2] is given as “no skin irritation”. Moreover, in the data set with Guinea pig skin, the sensitization entry is given as “high safety without any sensitization”.
In the case of `CC(C=O)Cc1ccc(C(C)C)cc1` (stereo not drawn) [cyclamen aldehyde], the skin sensitization entry with skin is “skin sensitization”.
For `CC(C)=CCCC(C)=CCCC(C)=CCO` [farnesol], the antimicrobial activity entry in data set [4] is reported as “has an antimicrobial activity”. For the same compound, the MIC with indigenous skin bacteria stood at 50 µg/mL (≈ 225 µM); with Staphylococcus aureus, 50 µg/mL (≈ 225 µM); with coryne bacteria it was 25 µg/mL (≈ 112 µM).
